From article PMC7236056 (ACS Medicinal Chemistry Letters, 2020)

Tests used:
hPPARγ = target: T1, hPPARγ (Homo sapiens, UniProt P37231); assay: GAL-4 PPAR transactivation assay, agonist activity; details: 1, 2.5 and 5 μM; HepG2; data not shown
T1 sequence (P37231 238-503 limits assumed): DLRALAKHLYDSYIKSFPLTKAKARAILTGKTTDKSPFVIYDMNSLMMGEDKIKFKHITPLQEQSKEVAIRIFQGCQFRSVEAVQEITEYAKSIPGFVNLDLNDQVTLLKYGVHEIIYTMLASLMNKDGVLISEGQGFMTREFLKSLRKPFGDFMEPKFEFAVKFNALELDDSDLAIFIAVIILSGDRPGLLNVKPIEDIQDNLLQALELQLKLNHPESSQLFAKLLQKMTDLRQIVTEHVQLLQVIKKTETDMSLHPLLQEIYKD

hPPARα = target: T2, hPPARα (Homo sapiens, UniProt Q07869); assay: GAL-4 PPAR transactivation assay, agonist activity; details: 1, 2.5 and 5 μM; HepG2
T2 sequence (Q07869 239-466 limits assumed): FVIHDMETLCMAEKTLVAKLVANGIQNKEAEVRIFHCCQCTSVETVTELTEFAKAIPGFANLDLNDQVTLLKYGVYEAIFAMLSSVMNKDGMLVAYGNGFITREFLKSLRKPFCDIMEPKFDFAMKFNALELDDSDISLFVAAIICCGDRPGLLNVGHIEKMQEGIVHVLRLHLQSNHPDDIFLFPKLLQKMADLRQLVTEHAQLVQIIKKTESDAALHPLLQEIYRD

[1] = tested on: paraganglioma (PGL) cell lines (PTJ64i, PTJ86i); assay: MTT cell viability, paraganglioma cell lines; assay type: cell-based; details: Homo sapiens, 72 h, read-out: inhibition rate in the PGL cell lines
[2] = tested on: colorectal cancer cell lines (HT-29, SW480); assay: MTT cell viability, colorectal cancer cell lines; assay type: cell-based; details: Homo sapiens, 72 h, read-out: inhibition rate in the colon cancer cell lines
[3] = tested on: eight human cancer cell lines (AsPC-1, BxPC-3, Capan-2, HT-29, SW480, PTJ64i, PTJ86i, A498); assay: MTT cell viability, eight human cancer cell lines, single concentration; assay type: cell-based; details: 75 μM, 72 h
CPT1A = assay: Expression of PPARα target gene CPT1A by RTqPCR; assay type: cell-based, human; details: HepG2, 48 h; test compounds 0.5 µM, GW7647 2 µM

SMILES	inhibition at 75 µM [1] [%]	inhibition at 75 µM [2] [%]	further results
CC(C)(Oc1ccc(CCOc2ccc(/N=N/c3ccccc3)cc2)cc1)C(=O)NS(=O)(=O)c1ccccc1 [2b]	–	–	agonist activity on PPARγ (hPPARγ): no detectable PPARα/γ activity; agonist activity on PPARα (hPPARα): no detectable PPARα/γ activity
CC(C)(Oc1ccc(CCOc2ccc(/N=N/c3ccccc3)cc2)cc1)C(=O)NS(=O)(=O)c1ccc(Cl)cc1 [3c]	84 to 98	52 to 98	–
CC(C)(Oc1ccc(CCOc2ccc(/N=N/c3ccccc3)cc2)cc1)C(=O)NS(=O)(=O)c1ccc([N+](=O)[O-])cc1 [3d]	84 to 98	52 to 98	–
CC(C)(Oc1ccc(CCOc2ccc(NC(=O)c3ccccc3)cc2)cc1)C(=O)NS(=O)(=O)c1ccccc1 [10e]	84 to 98	52 to 98	–
CCC(=O)NC[C@H](Cc1ccc(OCCc2nc(-c3ccccc3)oc2C)cc1)N/C(C)=C\C(=O)c1ccc(C(F)(F)F)cc1 [GW6471, reference compound]	85 to 92	–	effect on cell viability across the tumor cell lines tested [3]: showed antiproliferative activities
CC(C)(Sc1ccc(CCN(CCCCC2CCCCC2)C(=O)NC2CCCCC2)cc1)C(=O)O [GW7647]	–	–	CPT1A mRNA expression, compound alone (CPT1A): robustly stimulated CPT1A expression
Cc1cccc(Nc2cc(Cl)nc(SCC(=O)O)n2)c1C [Wy-14,643]	–	–	effect on cell viability across the tumor cell lines tested [3]: did not affect cell viability
